# According to patent publication EP0289262A2, “Omega-quaternary ammonium alkyl esters and thioesters of acidic nonsteroidal antiinflammatory drugs” (priority 1987, dated 1988):
# Where “and” joins values, the source holds several entries; their conditions need not be identical. Equal values may be shown once.
# What was measured:
# [1] = test system: Adjuvant-Induced Arthritis in the Rat; experiment: Rat adjuvant-induced arthritis assay; type: in vivo, Female Crl:CD, br rats; details: oral
# Protocol: Female Crl:CD, br rats weighting 160-180 gm were randomly distributed to treatment groups of 12 animals, and were given food and water ad libitum. Test materials were prepared fresh weekly as suspensions in aqueous carboxymethyl cellulose. Animals were orally dosed with volumes of 1 ml twice per day Monday through Friday, and with 2 ml once per day on Saturdays and Sundays. At time 0, rats were injected intradermally in the proximal quarter of the tail with 0.1 ml of a mineral oil suspension of heat killed and dried Mycobacterium butyricum (Difco) at a concentration of 10 mg/ml. After sacrifice, the hind paws of each animal were removed and weighed.
# Intestinal Tract of Rats = experiment: Test for ability to cause gastro-intestinal erosion in rats; type: in vivo, Male Lai: COX (SD) rats
# Protocol: Male Lai: COX (SD) rats weighing 200-250 gm were acclimated for one week under standard laboratory conditions. Each animal was individually indentified and body weights were determined on the first day of the test and again at autopsy. The test materials, suspended in aqueous carboxymethyl cellulose vehicle, were administered orally once daily in a volume of 1.0ml per 100g body weight for four consecutive days. Food was withdrawn from the animals following the last dose and the animals were sacrificed 24 hours later. At necropsy, the stomach and intestines were removed and observed for lesions. […] The incidence of lesions for each dose level tested is reported.
# [2] = test system: Intestinal Ulceration in Rats Induced by the Subcutaneous Administration of Indomethacin; experiment: Protective effect against intestinal ulceration induced by subcutaneous indomethacin; type: in vivo, Male Crl:D,br rats; details: indomethacin 4 mg/kg/day s.c. for four days, score 0-10, vehicle 5.8 ± 1.8
# Protocol: Male Crl:D,br rats weighing approximately 200 gm received indomethacin, 4 mg/kg, injected subcutaneously each day for four consecutive days to induce the formation of erosions and ulcers of the small intestine. Food was removed following the last dose of indomethacin and the rats were necropsied 18-24 hours later. Erosions of small intestine were scored as follows: 0 - no detectable lesions 2 - small ulcerattions (1-15) less than 1 mm 4 - small ulcerations plus 1-10 medium (2-3 mm) ulcerations 6 - predominantly medium ulceratiaons plus 2-5 severe (>4mm) ulcers without evidence of perforation 8 - many (>20) medium and severe ulcerations with evidence of perforation 10 - animals dying during assay as a consequence of intestinal perforation and septicemia.
# Agents to be tested for protective effects were administered orally in an aqueous vehicle, with one-half the daily dose being administered 4 hours prior to indomethacin injection and one half the daily dose being administered at the time of indomethacin injection.
# [3] = 21-day oral toxicity observation in rats; type: in vivo, male Hsd:(SD)BR rats; details: orally twice daily for 21 consecutive days, total daily dose 100 mg/Kg
# Protocol: Five male Hsd:(SD)BR rats weighing 205-215 g were acclimated for approximately one week prior to use under standard laboratory conditions. Naproxen thiocholine ester iodide, suspended in aqueous carboxymethylcellulose vehicle was administered orally twice daily in a volume of 1.0 ml per 200 g body weight for 21 consecutive days at a total daily dose of 100 mg/Kg.
# [4] = daily dose 25 mg/kg orally, four consecutive days, erosions graded 0-10, five rats
# [5] = daily dose 5 mg/kg orally, four consecutive days, erosions graded 0-10, five rats
# [6] = daily dose 200 mg/kg orally, four consecutive days, erosions graded 0-10, five rats
# [7] = daily dose 300 mg/kg orally, four consecutive days, erosions graded 0-10, five rats, 300 mg/kg
# [8] = daily dose 400 mg/kg orally, four consecutive days, erosions graded 0-10, five rats, 400 mg/kg
smiles,measurement,setting,value
"COc1ccc2c(c1)c(CC(=O)SCC[N+](C)(C)C)c(C)n2C(=O)c1ccc(Cl)cc1 [Indomethacin thiocholine ester iodide, indomethacin thiocholine ester iodide]",Percent Inhibition of Hind Paw Weight,[1]; daily dose 7.0 mg/kg,15%
same,Percent Inhibition of Hind Paw Weight,[1]; daily dose 14 mg/kg,59%
same,Mean Intestinal Ulcer Score ± 1Std. Dev.,Intestinal Tract of Rats; [4],0
same,Mean Intestinal Ulcer Score ± 1Std. Dev.,"Intestinal Tract of Rats; daily dose 100 mg/kg orally, four consecutive days, erosions graded 0-10, five rats",0
"O=C(c1ccccc1)c1ccc2n1CCC2C(=O)O (centres unmarked) [Ketorolac, ketorolac, reference compound]",Percent Inhibition of Hind Paw Weight,[1]; daily dose 0.1 mg/kg,5%
same,Percent Inhibition of Hind Paw Weight,[1]; daily dose 0.5 mg/kg,14%
same,Percent Inhibition of Hind Paw Weight,[1]; daily dose 2.5 mg/kg,59%
same,Mean Intestinal Ulcer Score ± 1Std. Dev.,Intestinal Tract of Rats; [5],1.9 ± 0.9
same,Mean Intestinal Ulcer Score ± 1Std. Dev.,"Intestinal Tract of Rats; rat, in vivo, po, 10 mg/kg",4.8 ± 1.7
same,Mean Intestinal Ulcer Score ± 1Std. Dev.,"Intestinal Tract of Rats; rat, in vivo, po, 20 mg/kg",7.4 ± 1.7
"COc1ccc2cc([C@H](C)C(=O)O)ccc2c1 [Naproxen, 2-(6′-methoxy-2′-naphthyl)propionic acid, reference compound]",Percent Inhibition of Hind Paw Weight,[1]; daily dose 1.4 mg/kg,22%
same,Percent Inhibition of Hind Paw Weight,[1]; daily dose 3.5 mg/kg,70%
same,Percent Inhibition of Hind Paw Weight,[1]; daily dose 7.0 mg/kg,77%
same,Mean Intestinal Ulcer Score ± 1Std. Dev.,"Intestinal Tract of Rats; daily dose 20 mg/kg orally, four consecutive days, erosions graded 0-10, five rats",1.6 ± 0.9
same,Mean Intestinal Ulcer Score ± 1Std. Dev.,Intestinal Tract of Rats; [4],3.2 ± 1.1
same,Mean Intestinal Ulcer Score ± 1Std. Dev.,"Intestinal Tract of Rats; daily dose 30 mg/kg orally, four consecutive days, erosions graded 0-10, five rats",6.4 ± 1.7
same,Mean Intestinal Ulcer Score ± 1Std. Dev.,"Intestinal Tract of Rats; daily dose 35 mg/kg orally, four consecutive days, erosions graded 0-10, five rats",7.6 ± 0.9
"COc1ccc2cc([C@H](C)C(=O)SCC[N+](C)(C)C)ccc2c1 [Naproxen thiocholine ester chloride, naproxen thiocholine ester chloride]",Mean Intestinal Ulcer Score ± 1Std. Dev.,Intestinal Tract of Rats; [6],0.4 ± 0.9
same,Mean Intestinal Ulcer Score ± 1Std. Dev.,Intestinal Tract of Rats; [7],1.6 ± 0.9
same,Mean Intestinal Ulcer Score ± 1Std. Dev.,Intestinal Tract of Rats; [8],5.6 ± 2.2
"COc1ccc2cc([C@H](C)C(=O)SCC[N+](C)(C)C)ccc2c1 [Naproxen thiocholine ester iodide, NAPROXEN THIOCHOLINE ESTER IODIDE]",Percent Inhibition of Hind Paw Weight,[1]; daily dose 7.0 mg/kg,40%
same,Percent Inhibition of Hind Paw Weight,[1]; daily dose 10 mg/kg,69%
same,Percent Inhibition of Hind Paw Weight,"[1]; daily dose 14 mg/kg, 14 mg/kg",40% and 53%
same,Percent Inhibition of Hind Paw Weight,"[1]; daily dose 28 mg/kg, 28 mg/kg",51% and 75%
same,Mean Intestinal Ulcer Score ± 1Std. Dev.,"Intestinal Tract of Rats; daily dose 150 mg/kg orally, four consecutive days, erosions graded 0-10, five rats",0
same,Mean Intestinal Ulcer Score ± 1Std. Dev.,Intestinal Tract of Rats; [6],0.4 ± 0.9
same,Mean Intestinal Ulcer Score ± 1Std. Dev.,"Intestinal Tract of Rats; daily dose 250 mg/kg orally, four consecutive days, erosions graded 0-10, five rats",1.6 ± 1.7
same,Mean Intestinal Ulcer Score ± 1Std. Dev.,Intestinal Tract of Rats; [7],3.0 ± 1.7
same,Mean Intestinal Ulcer Score ± 1Std. Dev.,Intestinal Tract of Rats; [8],7.2 ± 1.1
same,Intestinal Erosion Score Mean ± S.D.,[2]; oral dose 5 mg/kg/day,4.0 ± 2.4
same,Intestinal Erosion Score Mean ± S.D.,[2]; oral dose 10 mg/kg/day,2.4 ± 0.9
same,Intestinal Erosion Score Mean ± S.D.,[2]; oral dose 20 mg/kg/day,1.8 ± 2.4
same,Intestinal Erosion Score Mean ± S.D.,[2]; oral dose 50 mg/kg/day,0.8 ± 1.1
same,gross signs of toxicity,[3],did not produce any gross signs of toxicity
"COc1ccc2c(c1)c(CC(=O)O)c(C)n2C(=O)c1ccc(Cl)cc1 [Indomethacin, indomethacin, reference compound]",Percent Inhibition of Hind Paw Weight,[1]; daily dose 2.0 mg/kg,75%
same,Mean Intestinal Ulcer Score ± 1Std. Dev.,Intestinal Tract of Rats; [5],7.2 ± 1.9
"C[N+](C)(C)CCSC(=O)C1CCn2c(C(=O)c3ccccc3)ccc21 (centres unmarked) [Ketorolac thiocholine ester iodide, ketorolac thiocholine ester iodide]",Percent Inhibition of Hind Paw Weight,[1]; daily dose 1.0 mg/kg,10%
same,Percent Inhibition of Hind Paw Weight,"[1]; daily dose 5.0 mg/kg, 5 mg/kg",79% and 56%
same,Mean Intestinal Ulcer Score ± 1Std. Dev.,Intestinal Tract of Rats; [4],2.0 ± 2.0
same,Mean Intestinal Ulcer Score ± 1Std. Dev.,"Intestinal Tract of Rats; daily dose 50 mg/kg orally, four consecutive days, erosions graded 0-10, five rats",6.4 ± 0.9
same,Mean Intestinal Ulcer Score ± 1Std. Dev.,"Intestinal Tract of Rats; daily dose 75 mg/kg orally, four consecutive days, erosions graded 0-10, five rats",7.2 ± 1.1
